Two compounds from ChEMBL document CHEMBL5360657, “Discovery of the TLR7/8 Antagonist MHV370 for Treatment of Systemic Autoimmune Diseases” (ACS Med Chem Lett, 2023) can be followed below.

The target of data set [1] is Toll-like receptor 7 (Mus musculus) (UniProt P58681). The experiment in a line: In vivo antagonist activity against TLR7 in mouse assessed as inhibition of IL-6 level at 10 mg/kg, po measured after 2 hrs by LC-MS/MS analysis relative to control.
Data set [2] shares this target. The experiment in a line: In vivo antagonist activity against TLR7 in po dosed mouse assessed as suppression of IL-6 level measured at 3 hrs by LC-MS/MS analysis. The following applies: dose 1-30 mg/kg.
The target is the same in data set [3]. Briefly: In vivo antagonist activity against TLR7 in po dosed mouse assessed as suppression of IFN alpha level measured at 3 hrs by LC-MS/MS analysis. The following applies: dose 1-30 mg/kg.
Data set [4] has the same target. The experiment in a line: In vivo antagonist activity against TLR7 in mouse assessed as suppression of IFN alpha level at 1 mg/kg, po measured at 3 hrs by LC-MS/MS analysis.
The target of another data set is T1, Toll-like receptor 9 (Mus musculus, UniProt Q9EQU3).
T1 sequence (Q9EQU3 whole entry): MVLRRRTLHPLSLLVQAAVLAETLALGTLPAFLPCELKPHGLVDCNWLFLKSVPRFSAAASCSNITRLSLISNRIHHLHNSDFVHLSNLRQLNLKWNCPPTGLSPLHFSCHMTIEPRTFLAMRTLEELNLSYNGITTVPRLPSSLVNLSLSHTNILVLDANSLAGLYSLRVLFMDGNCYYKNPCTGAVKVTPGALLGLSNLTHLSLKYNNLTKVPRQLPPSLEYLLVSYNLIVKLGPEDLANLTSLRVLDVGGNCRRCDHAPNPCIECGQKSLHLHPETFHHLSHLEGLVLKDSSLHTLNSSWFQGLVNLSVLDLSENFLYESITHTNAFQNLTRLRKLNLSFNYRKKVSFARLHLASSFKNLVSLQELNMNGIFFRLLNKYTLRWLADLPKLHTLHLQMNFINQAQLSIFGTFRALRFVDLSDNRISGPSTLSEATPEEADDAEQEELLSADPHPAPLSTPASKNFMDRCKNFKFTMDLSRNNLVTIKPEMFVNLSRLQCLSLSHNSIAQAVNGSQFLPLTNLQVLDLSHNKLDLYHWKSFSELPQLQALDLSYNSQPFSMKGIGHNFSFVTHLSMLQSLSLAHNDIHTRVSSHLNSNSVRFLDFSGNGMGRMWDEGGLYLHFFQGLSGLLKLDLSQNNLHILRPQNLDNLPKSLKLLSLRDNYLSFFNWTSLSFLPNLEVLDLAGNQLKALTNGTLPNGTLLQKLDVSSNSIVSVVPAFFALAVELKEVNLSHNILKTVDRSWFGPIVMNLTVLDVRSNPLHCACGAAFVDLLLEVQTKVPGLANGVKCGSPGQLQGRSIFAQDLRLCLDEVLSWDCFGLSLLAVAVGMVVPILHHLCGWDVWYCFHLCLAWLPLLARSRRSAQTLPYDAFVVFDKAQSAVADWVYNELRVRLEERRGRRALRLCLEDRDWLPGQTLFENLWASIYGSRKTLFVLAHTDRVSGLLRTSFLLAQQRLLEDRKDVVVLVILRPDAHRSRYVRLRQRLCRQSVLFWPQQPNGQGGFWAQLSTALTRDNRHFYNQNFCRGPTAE
Briefly: Antagonist activity at TLR9 in mouse Splenocyte assessed as reduction in IFN-alpha level measured after 20 hrs by Spectramax M5 method. It is filed as cell-based.

In another data set the target is T2, Toll-like receptor 7 (Homo sapiens, UniProt Q9NYK1).
T2 sequence (Q9NYK1 whole entry): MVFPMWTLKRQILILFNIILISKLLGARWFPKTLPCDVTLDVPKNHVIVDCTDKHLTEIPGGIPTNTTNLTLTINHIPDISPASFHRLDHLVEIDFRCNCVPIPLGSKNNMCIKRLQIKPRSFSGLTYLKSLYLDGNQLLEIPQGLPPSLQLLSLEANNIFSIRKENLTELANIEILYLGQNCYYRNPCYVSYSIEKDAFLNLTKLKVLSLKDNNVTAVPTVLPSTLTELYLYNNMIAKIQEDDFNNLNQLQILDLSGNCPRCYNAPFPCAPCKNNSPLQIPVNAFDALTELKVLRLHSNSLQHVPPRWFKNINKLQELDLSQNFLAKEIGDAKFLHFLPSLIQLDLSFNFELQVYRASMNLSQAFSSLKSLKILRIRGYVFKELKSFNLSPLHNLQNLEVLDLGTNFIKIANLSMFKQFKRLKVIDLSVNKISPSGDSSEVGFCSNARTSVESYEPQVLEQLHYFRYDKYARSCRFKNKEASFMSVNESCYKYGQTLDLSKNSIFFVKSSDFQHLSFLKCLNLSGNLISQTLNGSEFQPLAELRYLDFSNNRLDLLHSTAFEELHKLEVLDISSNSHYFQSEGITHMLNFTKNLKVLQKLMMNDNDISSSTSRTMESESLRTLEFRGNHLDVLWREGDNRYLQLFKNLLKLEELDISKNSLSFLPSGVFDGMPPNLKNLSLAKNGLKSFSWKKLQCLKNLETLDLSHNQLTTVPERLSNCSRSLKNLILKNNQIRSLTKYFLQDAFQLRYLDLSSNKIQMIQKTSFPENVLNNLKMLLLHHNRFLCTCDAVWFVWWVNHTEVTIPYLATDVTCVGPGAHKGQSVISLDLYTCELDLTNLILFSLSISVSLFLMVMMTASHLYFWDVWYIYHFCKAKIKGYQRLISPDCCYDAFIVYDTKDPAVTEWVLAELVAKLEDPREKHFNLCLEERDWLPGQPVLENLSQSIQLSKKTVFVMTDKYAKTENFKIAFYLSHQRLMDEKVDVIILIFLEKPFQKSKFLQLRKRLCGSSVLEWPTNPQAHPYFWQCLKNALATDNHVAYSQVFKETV
The experiment in a line: Antagonist activity at TLR7 in human Whole blood cell assessed as reduction in IFN-alpha level measured after 30 mins. It is filed as tissue-based.

For a further data set, the target named is Toll-like receptor 4 (Homo sapiens, UniProt O00206). Briefly: Antagonist activity at TLR4 in human PBMC cells assessed as reduction in IL-6 level measured after 20 hrs by AlphaLISA assay. It is filed as cell-based. On the technique in general: Bead proximity is the source of the signal in Alpha formats.
A short description of data set [5]: Volume of distribution at steady state in mouse at 3 mg/kg, iv. The class given is ADME, organism-based. Conditions: in vivo, read-out: Vdss.
The nature of data set [6]: AUC in mouse at 20 mg/kg, po. The class given is ADME, organism-based. On the set-up: dose 20 mg/kg, route po. Conditions: in vivo.
The nature of data set [7]: Efflux ratio of permeability basolateral to apical over apical to basolateral side in human Caco-2 cells. The class given is ADME, cell-based. (Caco-2 cells form a polarised layer with tight junctions and transporters.)
Data set [8] in a line: MRT in mouse at 20 mg/kg, po. It is filed as ADME, organism-based. Conditions: in vivo.

The structures appear in SMILES notation.

Sequence of Toll-like receptor 4 (O00206 whole entry): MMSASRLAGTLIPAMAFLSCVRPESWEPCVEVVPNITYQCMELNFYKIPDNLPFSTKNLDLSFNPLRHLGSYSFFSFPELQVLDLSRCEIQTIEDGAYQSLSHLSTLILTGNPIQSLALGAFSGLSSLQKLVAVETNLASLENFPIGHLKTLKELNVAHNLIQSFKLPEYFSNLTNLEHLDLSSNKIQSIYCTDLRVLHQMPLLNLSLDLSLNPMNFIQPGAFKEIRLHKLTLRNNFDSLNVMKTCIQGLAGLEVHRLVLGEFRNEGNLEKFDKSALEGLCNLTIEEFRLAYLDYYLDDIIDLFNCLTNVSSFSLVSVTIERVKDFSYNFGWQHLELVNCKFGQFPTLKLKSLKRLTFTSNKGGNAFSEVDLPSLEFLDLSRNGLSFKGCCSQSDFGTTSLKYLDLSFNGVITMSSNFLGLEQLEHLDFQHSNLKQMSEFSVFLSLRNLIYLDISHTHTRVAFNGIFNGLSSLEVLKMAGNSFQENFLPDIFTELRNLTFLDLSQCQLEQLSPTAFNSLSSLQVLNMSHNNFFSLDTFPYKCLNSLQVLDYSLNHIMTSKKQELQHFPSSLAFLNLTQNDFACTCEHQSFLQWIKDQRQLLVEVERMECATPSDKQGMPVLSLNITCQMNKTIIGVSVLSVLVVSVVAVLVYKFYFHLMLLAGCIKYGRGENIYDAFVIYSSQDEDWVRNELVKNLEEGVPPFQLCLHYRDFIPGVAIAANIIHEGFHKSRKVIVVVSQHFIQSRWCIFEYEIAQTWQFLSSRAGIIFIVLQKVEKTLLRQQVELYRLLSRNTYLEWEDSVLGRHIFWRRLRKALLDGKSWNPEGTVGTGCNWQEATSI

Turning to `Cc1cc(N2CCc3c(c(C)nn3CC34CCC(NC(=O)[C@@H]5COCCN5)(CC3)CC4)C2)c2cnn(C)c2n1` [MHV-370], the inhibition in vivo at 10 mg/kg in [1] was ~100%. Further, the Activity result in data set [2] was “Dose-Dependent Effect”; in data set [3] it was “Dose-Dependent Effect”; in [4], 25 ng/mL. Further, the values for the IC50 on Toll-like receptor 9, on Toll-like receptor 7 and at Toll-like receptor 4 were > 1000 nM, 7 nM and > 10000 nM, respectively.

For `Cc1cc(N2CCc3c(c(C)nn3CC34CCC(N)(CC3)CC4)C2)c2cnn(C)c2n1`, the Vd in data set [5] worked out at 4.1 L/kg. In [6], this compound had an AUC of 1.15 µM·h. Also, in data set [7], the efflux ratio came out at 7.5. This compound also showed an MRT in data set [8] of 2.9 h.

As a reminder, the inhibition in vivo is the relative decrease from the control value, in per cent. As a reminder, the IC50 is the concentration that inhibits the measured activity by half. By AUC is commonly meant the area under the concentration-time curve, a measure of exposure. The low end stands for low exposure, the high end for high exposure. Broadly, the efflux ratio is the permeability from basolateral to apical divided by that in the opposite direction, in the common usage. One may read the MRT as a mean duration of stay, worked out from the concentration-time curve.
